Test results as given in ChEMBL document CHEMBL1201862, “PubChem BioAssay data set” (2004).
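Test compounds were applied to cells in 96-well plates for 48 hours at 5 doses. Here, GI50 denotes the concentration required for 50% inhibition of growth.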 Calls of active or inactive are those of the source. Cut-off read from the data, not from the text of the source: active = GI50 up to about 1.1 µM and inactive = higher.

Legend:
Test in all cases: NCI anticancer screen, dose series, 48 h
[1] = test system: UACC-257
[2] = test system: IGROV-1
[3] = test system: SK-OV-3
[4] = test system: RXF 393
[5] = test system: OVCAR-4
[6] = test system: UO-31
[7] = test system: EKVX
[8] = test system: K562
[9] = test system: SNB-19
[10] = test system: SK-MEL-28
[11] = test system: U-251
[12] = test system: A498
[13] = test system: 786-0
[14] = test system: UACC-62
[15] = test system: OVCAR-8
[16] = test system: CCRF-CEM
[17] = test system: SK-MEL-5
[18] = test system: TK-10
[19] = test system: LOX IMVI

Measured: GI50

c1ccc(C2N3CCCCC3[C@@H]3c4[nH]c5ccccc5c4CCN23)nc1 (some centres not stated)
inactive: [1] > 100 µM | [2] > 100 µM | [3] > 100 µM | [4] 33.3 µM | [5] > 100 µM | [6] > 100 µM | [7] > 100 µM | [8] 94 µM | [9] > 100 µM | [10] > 100 µM | [11] > 100 µM | [12] > 100 µM | [13] > 100 µM | [14] 96.8 µM | [15] > 100 µM | [16] > 100 µM | [17] > 100 µM | [18] > 100 µM

CC(=O)OC1CC2C(=O)C(=O)C1(C)C2(C)C (configuration not stated)
inactive: [1] > 100 µM | [2] > 100 µM | [3] > 100 µM | [5] > 100 µM | [6] > 100 µM | [7] > 100 µM | [8] > 100 µM | [9] > 100 µM | [10] > 100 µM | [11] > 100 µM | [12] > 100 µM | [13] > 100 µM | [14] > 100 µM | [15] > 100 µM | [16] > 100 µM | [17] > 100 µM | [18] > 100 µM

C1CSCCSCCS1
inactive: [1] > 100 µM | [2] > 100 µM | [3] > 100 µM | [19] > 100 µM | [4] > 100 µM | [5] > 100 µM | [6] > 100 µM | [7] > 100 µM | [8] > 100 µM | [9] > 100 µM | [10] > 100 µM | [11] > 100 µM | [13] > 100 µM | [14] > 100 µM | [15] > 100 µM | [16] > 100 µM | [17] > 100 µM | [18] > 100 µM

O=[N+]([O-])c1ccccc1C1N2CCCCC2[C@@H]2c3[nH]c4ccccc4c3CCN12 (some centres not stated)
inactive: [1] 13.7 µM | [2] 15.6 µM | [3] 17.9 µM | [4] 12.6 µM | [5] 17.3 µM | [6] 11.3 µM | [7] 20.7 µM | [8] 3.57 µM | [9] 14.9 µM | [10] 13.7 µM | [11] 15.6 µM | [12] 12.6 µM | [13] 16.1 µM | [14] 3.78 µM | [15] 16.8 µM | [16] 10.4 µM | [17] 13.4 µM | [18] 16.5 µM

O=C(CC(=O)Nc1ccccc1O)Nc1ccccc1O
inactive: [1] 15.5 µM | [2] 37.4 µM | [3] > 100 µM | [5] 34.3 µM | [6] 12.1 µM | [7] > 100 µM | [8] 6.79 µM | [9] > 100 µM | [10] 13.8 µM | [11] 23.9 µM | [12] > 100 µM | [13] 19.6 µM | [14] 3.24 µM | [15] 14.2 µM | [16] 3.96 µM | [17] 10 µM | [18] 53 µM

CCCCOCN/C(N)=N/C#N
inactive: [1] > 100 µM | [2] > 100 µM | [3] > 100 µM | [19] 21.5 µM | [4] > 100 µM | [5] 64.1 µM | [6] > 100 µM | [7] > 100 µM | [8] 73.6 µM | [9] > 100 µM | [10] > 100 µM | [11] > 100 µM | [12] > 100 µM | [13] 33.9 µM | [14] > 100 µM | [15] > 100 µM | [17] > 100 µM | [18] > 100 µM

CC(=O)CC(=O)Nn1c(-c2cccs2)nc2ccc(I)cc2c1=O
inactive: [1] 33 µM | [2] > 46.7 µM | [3] > 66.7 µM | [19] > 46.5 µM | [4] > 68.9 µM | [5] > 100 µM | [6] > 46.9 µM | [7] > 37.7 µM | [8] > 65.9 µM | [9] > 68.2 µM | [10] > 100 µM | [11] > 56 µM | [13] > 65.9 µM | [14] > 50.6 µM | [15] > 57.3 µM | [16] > 46.8 µM | [17] > 41.6 µM | [18] > 43.9 µM

CCOC(=O)NC(=O)c1cn(CCCOC(=O)CCCCCCCCCCC(=O)OCCCn2cc(C(=O)NC(=O)OCC)c(=O)[nH]c2=O)c(=O)[nH]c1=O
inactive: [1] > 100 µM | [2] > 100 µM | [3] 42.7 µM | [19] > 100 µM | [4] > 10 µM | [5] > 100 µM | [6] > 100 µM | [7] > 100 µM | [8] > 100 µM | [9] 49 µM | [10] > 100 µM | [11] > 100 µM | [13] > 100 µM | [14] > 100 µM | [15] > 100 µM | [16] > 100 µM | [17] > 100 µM | [18] > 100 µM
